What all share (assay type): functional, cell-based
Experiment [1] concerns MCF7. The experiment is described as follows: Cytotoxicity against human MCF7 cells assessed as inhibition of cell growth incubated for 72 hrs by MTT assay. The conditions noted are these: MCF7, 72 h.
The next experiment relates to HeLa S3. Put plainly: Cytotoxicity against human HeLa S3 cells assessed as inhibition of cell growth incubated for 72 hrs by MTT assay. Conditions: HeLa S3, 72 h. For orientation: Formazan colour is commonly taken as a measure of viable cells.
The test system of experiment [2] is MCF7. Put plainly: Cytotoxicity against human MCF7 cells assessed as inhibition of cell growth incubated for 24 hrs by MTT assay. Conditions: MCF7, 24 h.
In another experiment the test system is SW480. Put plainly: Cytotoxicity against human SW480 cells assessed as inhibition of cell growth incubated for 24 hrs by MTT assay. The conditions noted are these: SW480, 24 h.
The test system of the next experiment is HL-60. The experiment is described as follows: Cytotoxicity against human HL-60 cells assessed as inhibition of cell growth incubated for 24 hrs by MTT assay. Conditions: HL-60, 24 h.

In general, IC50 refers to the point on the concentration scale where inhibition reaches its midpoint.

In the case of `CC[C@H](C)[C@@H]1NC(=O)[C@@H]2[C@@H](C)CCN2C(=O)[C@@H](C[C@H](O)CO)OC(=O)CCNC(=O)[C@H](C)N(C)C(=O)[C@H]([C@@H](C)CC)N(C)C1=O`, the IC50 with MCF7 [1] and in the experiment on HeLa S3 was greater than 10000 nM throughout.
Take `CC[C@H](C)[C@@H]1NC(=O)[C@@H]2[C@@H](C)CCN2C(=O)[C@@H](C[C@@H](O)CCl)OC(=O)CCNC(=O)[C@H](C)N(C)C(=O)[C@H]([C@@H](C)CC)N(C)C1=O`: the IC50 in the experiment on MCF7 [1] turned out to be 2800 nM; with HeLa S3, 400 nM; in the experiment with MCF7 [2], 79 nM; in the experiment on SW480 it was 107 nM; with HL-60 it was 149 nM.
Turning to `CC[C@H](C)[C@@H]1NC(=O)[C@@H]2[C@@H](C)CCN2C(=O)[C@@H](C[C@H](O)CCl)OC(=O)CCNC(=O)[C@H](C)N(C)C(=O)[C@H]([C@@H](C)CC)N(C)C1=O`, the IC50 in the experiment on MCF7 [1] worked out at 340 nM; with HeLa S3 it was 31 nM.
The corresponding values for `CO[C@@]12[C@H](COC(N)=O)C3=C(C(=O)C(C)=C(N)C3=O)N1C[C@@H]1N[C@@H]12` [MITOMYCIN] are 1800 nM and 520 nM.

The values above are taken from ChEMBL document CHEMBL5120912, “Structure Revision of Trichomide D by Total Synthesis” (J Nat Prod, 2022).
